Assay results from ChEMBL document CHEMBL1151034, “De novo design of nonpeptidic HIV-1 protease inhibitors: Incorporation of structural water” (Bioorg Med Chem Lett, 1994).

Tests used:
[1] = biological target: Human immunodeficiency virus type 1 protease (Human immunodeficiency virus 1, UniProt Q72874); assay: (§1) Inhibitory activity against HIV-1 protease
[2] = biological target: Human immunodeficiency virus type 1 protease (Human immunodeficiency virus 1) (UniProt Q72874); conditions: 100 uM
Description: Inhibitory activity against HIV-1 protease at 100 uM concentration

[3] = biological target: Human immunodeficiency virus type 1 protease (Human immunodeficiency virus 1) (UniProt Q72874); assay: as §1; conditions: concentration not given here

Row | Structure (SMILES) | IC50 [1] [µM] | inhibition [2] [%] | inhibition [3] [%]
1 | C=CCN1C(=O)N(CC=C)[C@@H](Cc2ccccc2)C(O)[C@@H]1Cc1ccccc1 | 53 |  | 
2 | O=C1N[C@@H](Cc2ccccc2)C(O)[C@H](Cc2ccccc2)N1 | > 100 | 35 | 
3 | O=C1N(CC2CC2)[C@@H](Cc2ccccc2)C(O)[C@H](Cc2ccccc2)N1CC1CC1 | 9 |  | 
4 | O=C1N(Cc2ccc3ccccc3c2)[C@@H](Cc2ccccc2)C(O)[C@H](Cc2ccccc2)N1Cc1ccc2ccccc2c1 |  |  | 6
5 | O=C1N(Cc2ccccc2)[C@@H](Cc2ccccc2)C(O)[C@H](Cc2ccccc2)N1Cc1ccccc1 | 89 |  | 
